Measurements reported in patent publication US20250197375A1, “PYRIMIDINES AND METHODS OF THEIR USE” (Kineta, Inc., priority 2021, published 2025).

What was measured:
[1] = target: full-length human PIKFYVE (Homo sapiens (Human), UniProt Q9Y2I7, L932S/Q1183K/Q995L/S1033A/S696N/T998S); test: PIKfyve Biochemical Assay (ADP-Glo Kinase assay, GST-PIKFYVE); settings: ADP-Glo with full-length PIKfyve; read-out: PIKfyve IC50
Method: PIKfyve Biochemical Assay. The biochemical PIKFyve inhibition assays were run by Cama Biosciences according to proprietary methodology based on the Promega ADP-Glo™ Kinase assay. […] GST-PIKFYVE was purified by using glutathione sepharose chromatography and used in an ADP-Glo™ Kinase assay (Promega). Reactions were set up by adding the test compound solution, substrate solution, ATP solution and kinase solution, each at 4× final concentrations. Reactions were prepared with assay buffer (50 mM MOPS, 1 mM DTT, pH7.2), mixed, and incubated in black 384 well polystyrene plates for 1 hour at room temperature. ADP-Glo™ reagent was then added for 40 minutes, followed by kinase detection reagent for an additional 40 minutes. The kinase activity was evaluated by detecting relative light units on a luminescence plate reader. Samples were run in duplicate from 10 μM to 3 nM. […] IC50 values were calculated from concentration versus percent inhibition curves by fitting to a four-parameter logistic curve.
The biochemical PIKFyve inhibition assays were run by Cama Biosciences according to proprietary methodology based on the Promega ADP-Glo™ Kinase assay. […] GST-PIKFYVE was purified by using glutathione sepharose chromatography and used in an ADP-Glo™ Kinase assay (Promega).
Reactions were set up by adding the test compound solution, substrate solution, ATP solution and kinase solution, each at 4× final concentrations. Reactions were prepared with assay buffer (50 mM MOPS, 1 mM DTT, pH7.2), mixed, and incubated in black 384 well polystyrene plates for 1 hour at room temperature. ADP-Glo™ reagent was then added for 40 minutes, followed by kinase detection reagent for an additional 40 minutes. The kinase activity was evaluated by detecting relative light units on a luminescence plate reader. Samples were run in duplicate from 10 uM to 3 nM. […] IC50 values were calculated from concentration vs % inhibition curves by fitting to a four-parameter logistic curve.

FAB1 TDP-43 yeast strain = test: Propidium iodide viability assay in FAB1 TDP-43 control yeast strain; type: cell-based; settings: FAB1 TDP-43 yeast model
Method: Viability Assay. A control yeast strain with the wild-type yeast FAB1 gene and TDP-43 (“FAB1 TDP-43”, carries empty pAG416 plasmid), and the “PIKFYVE TDP-43” yeast strain, were assessed for toxicity using a propidium iodide viability assay. Both yeast strains were transferred from solid CSM-ura/2% glucose agar plates into 3 mL of liquid CSM-ura/2% glucose media for 6-8 hours at 30° C. with aeration. Yeast cultures were then diluted to an optical density at 600 nm wavelength (OD600) of 0.005 in 3 mL of CSM-ura/2% raffinose and grown overnight at 30° C. with aeration to an OD600 of 0.3-0.8. Log-phase overnight cultures were diluted to OD600 of 0.005 in CSM-ura containing either 2% raffinose or galactose and 150 µL dispensed into each well of a flat bottom 96-well plates. Compounds formulated in 100% dimethyl sulfoxide (DMSO) were serially diluted in DMSO and 1.5 µL diluted compound transferred to the 96-well plates using a multichannel pipet. Wells containing DMSO alone were also evaluated as controls for compound effects. Tested concentrations ranged from 15 µM to 0.11 µM. Cultures were immediately mixed to ensure compound distribution and covered plates incubated at 30° C. for 24 hours in a stationary, humified incubator.
(§1) Upon the completion of incubation, cultures were assayed for viability using propidium iodide (PI) to stain for dead/dying cells. A working solution of PI was made where, for each plate, 1 µL of 10 mM PI was added to 10 mL of CSM-ura (raffinose or galactose). The final PI solution (50 µL/well) was dispensed into each well of a new round bottom 96-well plate. The overnight 96-well assay plate was then mixed with a multichannel pipet and 50 µL transferred to the PI-containing plate. This plate was then incubated for 30 minutes at 30° C. in the dark. A benchtop flow cytometer (Miltenyi MACSquant) was then used to assess red fluorescence (B2 channel), forward scatter, and side scatter (with following settings: gentle mix, high flow rate, fast measurement, 10,000 events). Intensity histograms were then gated for “P-positive” or “PI-negative” using the raffinose and galactose cultures treated with DMSO as controls. The DMSO controls for raffinose or galactose-containing cultures were used to determine the window of increased cell death and this difference set to 100. All compounds were similarity gated and then compared to this maximal window to establish the percent reduction in PI-positive cells.

[2] = test system: PIKFYVE TDP-43 yeast strain; test: Propidium iodide viability assay in PIKFYVE TDP-43 yeast strain; type: cell-based; settings: PIKFYVE TDP-43 yeast model
Text: Generation of TDP-43 yeast model expressing human PIKfyve. Human PIKFYVE (“entry clone”) was cloned into pAG416GPDccdB (“destination vector”) according to standard Gateway cloning protocols (Invitrogen, Life Technologies). […] Lithium acetate/polyethylene glycol-based transformation was used to introduce the above PIKFYVE plasmid into a BY4741 yeast strain auxotrophic for the ura3 gene and deleted for two transcription factors that regulate the xenobiotic efflux pumps, a major efflux pump, and FAB1, the yeast ortholog of PIKFYVE (MATa, snq2::KILeu2; pdr3::Klura3; pdr1::NATMX; fab1::G418^R, his3; leu2; ura3; met15; LYS2+) (FIG. 2). Transformed yeast were plated on solid agar plates with complete synthetic media lacking uracil (CSM-ura) and containing 2% glucose. Individual colonies harboring the control or PIKFYVE TDP-43 plasmids were recovered. A plasmid containing wild-type TDP-43 under the transcriptional control of the GAL1 promoter and containing the hygromycin-resistance gene as a selectable marker was transformed into the fab1::G418^R pAG416GPD-PIKFYVE yeast strain (FIG. 1). Transformed yeast were plated on CSM-ura containing 2% glucose and 200 µg/mL G418 after overnight recovery in media lacking antibiotic. Multiple independent isolates were further evaluated for cytotoxicity and TDP-43 expression levels.
Viability Assay. A control yeast strain with the wild-type yeast FAB1 gene and TDP-43 (“FAB1 TDP-43”, carries empty pAG416 plasmid), and the “PIKFYVE TDP-43” yeast strain, were assessed for toxicity using a propidium iodide viability assay. Both yeast strains were transferred from solid CSM-ura/2% glucose agar plates into 3 mL of liquid CSM-ura/2% glucose media for 6-8 hours at 30° C. with aeration. […] Log-phase overnight cultures were diluted to OD600 of 0.005 in CSM-ura containing either 2% raffinose or galactose and 150 µL dispensed into each well of a flat bottom 96-well plates. […] Wells containing DMSO alone were also evaluated as controls for compound effects. […] Cultures were immediately mixed to ensure compound distribution and covered plates incubated at 30° C. for 24 hours in a stationary, humified incubator.
as §1

Chain of full-length human PIKFYVE (Q9Y2I7 whole entry S696N/L932S/Q995L/T998S/S1033A/Q1183K): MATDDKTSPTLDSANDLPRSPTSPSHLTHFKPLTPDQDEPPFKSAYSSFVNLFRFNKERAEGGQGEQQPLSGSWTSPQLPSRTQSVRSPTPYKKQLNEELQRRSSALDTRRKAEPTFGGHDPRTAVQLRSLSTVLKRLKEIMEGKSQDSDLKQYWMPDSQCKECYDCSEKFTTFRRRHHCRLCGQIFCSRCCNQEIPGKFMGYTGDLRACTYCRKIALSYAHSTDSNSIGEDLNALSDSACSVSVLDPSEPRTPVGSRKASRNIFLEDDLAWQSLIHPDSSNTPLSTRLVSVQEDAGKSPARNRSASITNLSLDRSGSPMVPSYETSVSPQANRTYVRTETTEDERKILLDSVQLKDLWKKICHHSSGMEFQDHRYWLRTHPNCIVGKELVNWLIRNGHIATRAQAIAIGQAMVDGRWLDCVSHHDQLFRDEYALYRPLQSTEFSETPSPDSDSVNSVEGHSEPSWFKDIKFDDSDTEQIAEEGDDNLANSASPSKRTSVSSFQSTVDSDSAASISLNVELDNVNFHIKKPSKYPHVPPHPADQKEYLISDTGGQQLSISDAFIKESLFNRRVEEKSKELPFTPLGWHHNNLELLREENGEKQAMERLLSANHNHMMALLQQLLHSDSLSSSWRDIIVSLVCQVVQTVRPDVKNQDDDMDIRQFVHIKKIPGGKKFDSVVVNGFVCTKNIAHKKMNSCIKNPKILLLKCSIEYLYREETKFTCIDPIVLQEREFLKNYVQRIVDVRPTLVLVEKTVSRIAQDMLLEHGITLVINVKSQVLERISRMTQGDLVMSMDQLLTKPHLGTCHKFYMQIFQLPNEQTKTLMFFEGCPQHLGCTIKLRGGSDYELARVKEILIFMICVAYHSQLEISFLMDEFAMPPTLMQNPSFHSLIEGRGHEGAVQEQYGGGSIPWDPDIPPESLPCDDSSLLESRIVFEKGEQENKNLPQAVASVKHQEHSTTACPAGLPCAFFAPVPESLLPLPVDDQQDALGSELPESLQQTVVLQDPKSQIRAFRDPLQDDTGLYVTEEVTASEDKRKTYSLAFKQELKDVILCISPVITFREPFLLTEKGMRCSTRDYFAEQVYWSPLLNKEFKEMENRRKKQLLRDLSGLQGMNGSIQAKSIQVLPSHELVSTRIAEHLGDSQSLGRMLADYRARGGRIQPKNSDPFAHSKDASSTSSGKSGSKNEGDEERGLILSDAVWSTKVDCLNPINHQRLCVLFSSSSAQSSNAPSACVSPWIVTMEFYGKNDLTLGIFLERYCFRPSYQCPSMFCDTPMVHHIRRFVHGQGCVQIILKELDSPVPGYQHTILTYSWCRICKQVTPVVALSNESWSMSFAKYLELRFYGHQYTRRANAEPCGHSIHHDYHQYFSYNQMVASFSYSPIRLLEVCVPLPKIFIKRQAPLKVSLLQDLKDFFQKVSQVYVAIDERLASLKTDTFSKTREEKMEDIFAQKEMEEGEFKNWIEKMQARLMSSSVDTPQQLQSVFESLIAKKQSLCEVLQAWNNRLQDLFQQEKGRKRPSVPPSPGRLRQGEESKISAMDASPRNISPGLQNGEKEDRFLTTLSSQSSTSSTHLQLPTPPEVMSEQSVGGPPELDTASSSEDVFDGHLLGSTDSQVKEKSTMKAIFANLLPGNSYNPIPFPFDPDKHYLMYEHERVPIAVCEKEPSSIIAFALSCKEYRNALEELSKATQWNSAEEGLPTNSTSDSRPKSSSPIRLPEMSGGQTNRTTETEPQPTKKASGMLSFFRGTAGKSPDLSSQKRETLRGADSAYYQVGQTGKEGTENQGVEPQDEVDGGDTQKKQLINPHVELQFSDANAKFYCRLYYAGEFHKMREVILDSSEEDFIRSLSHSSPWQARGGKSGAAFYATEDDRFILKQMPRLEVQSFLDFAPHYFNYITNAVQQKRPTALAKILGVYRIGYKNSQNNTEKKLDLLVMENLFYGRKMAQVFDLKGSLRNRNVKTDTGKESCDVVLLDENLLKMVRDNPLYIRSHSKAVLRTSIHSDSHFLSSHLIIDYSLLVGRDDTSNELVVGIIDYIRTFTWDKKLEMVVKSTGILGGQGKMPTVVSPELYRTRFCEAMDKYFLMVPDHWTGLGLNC

## N#Cc1cc(N2CCOCC2)n2nc(-c3ccncc3)cc2n1
[1]
  IC50: > 10 µM
FAB1 TDP-43 yeast strain
  FAB1 TDP-43 (active/inactive): Inactive
[2]
  PIKfyve TDP-43 (active/inactive): Inactive
